# According to publication PMC4286351 (Journal of undergraduate chemistry research, 2013):
# Tests used:
# rat P450 2B1 = biological target: T1, rat P450 2B1 (Rattus norvegicus, UniProt P00176); experiment: biochemical; format: biochemical; settings: for inhibition potency for P450 2B1 (in words): rat P450 2B1, PROD activity
# T1 sequence (P00176 1-491): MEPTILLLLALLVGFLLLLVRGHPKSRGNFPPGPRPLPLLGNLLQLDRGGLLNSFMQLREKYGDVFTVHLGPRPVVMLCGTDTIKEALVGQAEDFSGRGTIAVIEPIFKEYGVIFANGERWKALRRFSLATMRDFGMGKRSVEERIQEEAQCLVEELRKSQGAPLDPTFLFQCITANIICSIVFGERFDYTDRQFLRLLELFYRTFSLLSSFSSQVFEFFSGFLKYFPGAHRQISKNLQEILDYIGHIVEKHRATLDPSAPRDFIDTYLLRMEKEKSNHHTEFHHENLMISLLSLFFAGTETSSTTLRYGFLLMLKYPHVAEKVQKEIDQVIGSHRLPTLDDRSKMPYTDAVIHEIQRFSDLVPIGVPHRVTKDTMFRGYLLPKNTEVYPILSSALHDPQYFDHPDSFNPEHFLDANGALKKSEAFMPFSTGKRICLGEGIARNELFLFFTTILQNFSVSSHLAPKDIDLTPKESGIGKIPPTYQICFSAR
# human P450 1A1 = biological target: T2, human P450 1A1 (Homo sapiens, UniProt P04798); experiment: biochemical
# T2 sequence (P04798 1-512): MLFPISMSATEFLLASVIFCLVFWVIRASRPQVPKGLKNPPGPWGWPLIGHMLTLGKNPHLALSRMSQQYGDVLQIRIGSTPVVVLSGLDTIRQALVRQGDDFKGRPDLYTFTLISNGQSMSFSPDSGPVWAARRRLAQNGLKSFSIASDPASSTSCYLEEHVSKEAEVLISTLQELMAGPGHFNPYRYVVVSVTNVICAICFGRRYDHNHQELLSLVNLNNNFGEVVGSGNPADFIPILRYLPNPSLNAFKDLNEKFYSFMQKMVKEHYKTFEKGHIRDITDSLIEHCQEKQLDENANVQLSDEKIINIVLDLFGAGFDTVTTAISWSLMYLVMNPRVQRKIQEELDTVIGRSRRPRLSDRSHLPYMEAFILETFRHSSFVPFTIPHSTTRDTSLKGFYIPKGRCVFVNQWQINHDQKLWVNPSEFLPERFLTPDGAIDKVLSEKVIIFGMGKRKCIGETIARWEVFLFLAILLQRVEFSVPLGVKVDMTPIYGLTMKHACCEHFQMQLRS
# human P450 1A2 = biological target: T3, human P450 1A2 (Homo sapiens, UniProt P05177); experiment: 7-methoxyresorufin O-demethylation; format: biochemical
# T3 sequence (P05177 1-516): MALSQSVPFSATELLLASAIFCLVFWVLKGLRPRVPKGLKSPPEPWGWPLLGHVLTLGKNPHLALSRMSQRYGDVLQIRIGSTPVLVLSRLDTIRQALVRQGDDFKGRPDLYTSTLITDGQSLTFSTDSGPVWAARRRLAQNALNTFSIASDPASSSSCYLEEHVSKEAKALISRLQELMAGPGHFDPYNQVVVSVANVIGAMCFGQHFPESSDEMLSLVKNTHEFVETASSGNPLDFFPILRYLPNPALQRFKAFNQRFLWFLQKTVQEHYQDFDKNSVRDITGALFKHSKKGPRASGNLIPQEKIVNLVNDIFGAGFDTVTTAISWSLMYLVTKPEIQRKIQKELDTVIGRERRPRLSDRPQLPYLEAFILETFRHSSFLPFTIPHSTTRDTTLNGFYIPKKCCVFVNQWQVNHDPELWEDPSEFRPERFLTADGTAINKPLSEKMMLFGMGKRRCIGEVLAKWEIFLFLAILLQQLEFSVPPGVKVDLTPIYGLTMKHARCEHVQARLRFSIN
SMILES,IC50 (rat P450 2B1) [µM],inhibition potency for P450 2B1 (in words) (rat P450 2B1),IC50 (human P450 1A1) [µM],IC50 (human P450 1A2) [µM]
"COc1cccc2[nH]c3ccccc3c12 [I, 4-methoxy-9H-carbazole]",1.83,good inhibition potency,21.5,
"CCCOc1cccc2[nH]c3ccccc3c12 [III, 4-propoxy-9H-carbazole]",0.659,good inhibition potency,8.73,
"C#CCOc1cccc2[nH]c3ccccc3c12 [IV, 4-(prop-2-yn-1-yloxy)-9H-carbazole]",1.78,good inhibition potency,6.64,
"C#CCOc1ccc2c(c1)[nH]c1ccccc12 [VIII, 2-(prop-2-yn-1-yloxy)-9H-carbazole]",5.26,,8.65,
"Oc1cccc2[nH]c3ccccc3c12 [4-hydroxycarbazole, 4-Hydroxycarbazole, reference compound]",> 100,,36.8,7.33
"COc1ccc2c(c1)[nH]c1ccccc12 [V, 2-methoxy-9H-carbazole]",13.3,,35,
"Oc1ccc2c(c1)[nH]c1ccccc12 [2-hydroxycarbazole, 2-Hydroxycarbazole, reference compound]",41.6,,70.5,59.7
"CCCOc1ccc2c(c1)[nH]c1ccccc12 [VII, 2-propoxy-9H-carbazole]",10.6,,26.4,
"CCOc1ccc2c(c1)[nH]c1ccccc12 [VI, 2-ethoxy-9H-carbazole]",8.43,,15.6,
"CCOc1cccc2[nH]c3ccccc3c12 [II, 4-ethoxy-9H-carbazole]",1.14,good inhibition potency,10.3,
